# Biological target: T1, full-length human PKCι (Homo sapiens, UniProt P41743)
# T1 construct: Recombinant, full-length human PKCι expressed in Sf21 insect cells is also commercially available; purchased; host or cells: Sf21 insect cells
# T1 sequence (P41743 1-596): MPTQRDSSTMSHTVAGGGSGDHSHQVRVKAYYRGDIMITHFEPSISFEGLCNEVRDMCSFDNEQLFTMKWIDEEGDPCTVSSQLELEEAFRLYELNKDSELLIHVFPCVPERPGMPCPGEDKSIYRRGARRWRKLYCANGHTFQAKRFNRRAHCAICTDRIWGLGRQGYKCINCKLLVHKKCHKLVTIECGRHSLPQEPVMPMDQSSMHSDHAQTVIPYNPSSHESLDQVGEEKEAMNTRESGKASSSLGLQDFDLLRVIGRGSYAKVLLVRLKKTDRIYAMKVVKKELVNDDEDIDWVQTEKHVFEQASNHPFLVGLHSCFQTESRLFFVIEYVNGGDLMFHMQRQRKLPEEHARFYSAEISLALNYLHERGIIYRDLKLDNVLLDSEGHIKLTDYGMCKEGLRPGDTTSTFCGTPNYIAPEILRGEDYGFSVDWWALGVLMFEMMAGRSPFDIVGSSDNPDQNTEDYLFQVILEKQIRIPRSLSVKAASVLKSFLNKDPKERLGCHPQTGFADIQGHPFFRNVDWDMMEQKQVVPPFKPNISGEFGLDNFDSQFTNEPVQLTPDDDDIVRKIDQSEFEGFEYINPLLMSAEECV
# Test: PKCι IC50 IMAP fluorescence polarisation assay, full-length enzyme
# Type: biochemical
# Details: enzyme form not given; no asterisk; read-out: Activity (IC50 printed as a bound, no asterisk)
row,IC50 [nM],SMILES
1,> 60000,"Cn1cc(-c2nc(NCCN)c3c4c(sc3n2)CCCC4)cn1 [compound 195, N*1*-[2-(1-Methyl-1H-pyrazol-4-yl)-5,6,7,8-tetrahydro-benzo[4,5]thieno[2,3-d]pyrimidin-4-yl]-ethane-1,2-diamine]"

# Same assay, conditions: full length PKCi at 15 μM ATP; read-out: IC50 in IMAP assay against full length PKCi
row,IC50 [nM],SMILES
1,1000 to 10000,"C[C@H](O)CNc1cc(-c2nc(N[C@@H]3CCNC3)c3sccc3n2)ccn1 [compound 591, (S)-1-{4-[4-((R)-Pyrrolidin-3-ylamino)-thieno[3,2-d]pyrimidin-2-yl]-pyridin-2-ylamino}-propan-2-ol]"
2,100 to 1000,"Fc1cnc(Nc2cnccn2)cc1-c1nc(N[C@@H]2CCNC2)c2sccc2n1 [compound 580, {2-[5-Fluoro-2-(pyrazin-2-ylamino)-pyridin-4-yl]-thieno[3,2-d]pyrimidin-4-yl}-(R)-pyrrolidin-3-yl-amine]"
3,100 to 1000,"N[C@H](CNc1nc(-c2ccncc2)nc2c(-c3ccon3)csc12)Cc1ccccc1 [compound 572, (S)-N*1*-(7-Isoxazol-3-yl-2-pyridin-4-yl-thieno[3,2-d]pyrimidin-4-yl)-3-phenyl-propane-1,2-diamine]"
4,100 to 1000,"N[C@H](CNc1nc(-c2ccncc2)nc2c(C#Cc3cscn3)csc12)Cc1ccccc1 [compound 548, (S)-3-Phenyl-N*1*-(2-pyridin-4-yl-7-thiazol-4-ylethynyl-thieno[3,2-d]pyrimidin-4-yl)-propane-1,2-diamine]"
5,1000 to 10000,"O[C@@H](CNc1cc(-c2nc(N[C@@H]3CCNC3)c3sccc3n2)ccn1)c1ccccc1 [compound 593, (R)-1-Phenyl-2-{4-[4-((R)-pyrrolidin-3-ylamino)-thieno[3,2-d]pyrimidin-2-yl]-pyridin-2-ylamino}-ethanol]"
6,1000 to 10000,"CC[C@H](Nc1cc(-c2nc(N[C@@H]3CCNC3)c3sccc3n2)ccn1)c1ccccc1 [compound 589, {2-[2-((S)-1-Phenyl-propylamino)-pyridin-4-yl]-thieno[3,2-d]pyrimidin-4-yl}-(R)-pyrrolidin-3-yl-amine]"
7,100 to 1000,"c1cn(Cc2ccc(Nc3cc(-c4nc(N[C@@H]5CCNC5)c5sccc5n4)ccn3)cc2)cn1 [compound 614, {2-[2-(4-Imidazol-1-ylmethyl-phenylamino)-pyridin-4-yl]-thieno[3,2-d]pyrimidin-4-yl}-(R)-pyrrolidin-3-yl-amine]"
8,1000 to 10000,"NC(=O)CN1C[C@H](Nc2nc(-c3ccnc(NC(=O)c4cccs4)c3)nc3ccsc23)[C@@H](O)C1 [compound 629, Thiophene-2-carboxylic acid {4-[4-((3S,4S)-1-carbamoylmethyl-4-hydroxy-pyrrolidin-3-ylamino)-thieno[3,2-d]pyrimidin-2-yl]-pyridin-2-yl}-amide]"
9,< 100,"N[C@H](CNc1nc(-c2ccncc2)nc2c(C#Cc3cc[nH]n3)csc12)Cc1ccccc1 [compound 549, (S)-3-Phenyl-N*1*-[7-(1H-pyrazol-3-ylethynyl)-2-pyridin-4-yl-thieno[3,2-d]pyrimidin-4-yl]-propane-1,2-diamine]"

# Further lines, the compound ahead of its results:
row,SMILES,IC50 [nM]
1,"O[C@H]1CNC[C@@H]1Nc1nc(-c2ccncc2)nc2ccsc12 [compound 319, (3S,4S)-4-(2-Pyridin-4-yl-thieno[3,2-d]pyrimidin-4-ylamino)-pyrrolidin-3-ol]",1000 to 10000
2,"N[C@@H]1CCN(c2nc(-c3ccncc3)nc3ccsc23)C1 [compound 318, (R)-1-(2-Pyridin-4-yl-thieno[3,2-d]pyrimidin-4-yl)-pyrrolidin-3-ylamine]",10000 to 40000
3,"Fc1cnccc1-c1nc(N[C@@H]2CCNC2)c2scc(Nc3ccon3)c2n1 [compound 497, 2-(3-Fluoro-pyridin-4-yl)-N*7*-isoxazol-3-yl-N*4*- (R)-pyrrolidin-3-yl-thieno[3,2-d]pyrimidine-4,7-diamine]",10000 to 40000
4,"COC(C)(C)C#Cc1csc2c(NC[C@@H](N)Cc3ccccc3)nc(-c3ccncc3)nc12 [compound 520, (S)-N*1*-[7-(3-Methoxy-3-methyl-but-1-ynyl)-2-pyridin-4-yl-thieno[3,2-d]pyrimidin-4-yl]-3-phenyl-propane-1,2-diamine]",100 to 1000
5,"CC(C)(N)C#Cc1csc2c(NC[C@@H](N)Cc3ccccc3)nc(-c3ccncc3)nc12 [compound 516, (S)-N*1*-[7-(3-Amino-3-methyl-but-1-ynyl)-2-pyridin-4-yl-thieno[3,2-d]pyrimidin-4-yl]-3-phenyl-propane-1,2-diamine]",1000 to 10000
6,"C[C@H](O)C#Cc1csc2c(NC[C@@H](N)Cc3ccccc3)nc(-c3ccncc3)nc12 [compound 533, (S)-4-[4-((S)-2-Amino-3-phenyl-propylamino)-2-pyridin-4-yl-thieno[3,2-d]pyrimidin-7-yl]-but-3-yn-2-ol]",< 100
7,"Cc1c(C#CC(C)(C)O)sc2c(N[C@@H]3CCNC3)nc(-c3ccncc3)nc12 [compound 502, 2-Methyl-4-[7-methyl-2-pyridin-4-yl-4-((R)-pyrrolidin-3-ylamino)-thieno[3,2-d]pyrimidin-6-yl]-but-3-yn-2-ol]",1000 to 10000
8,"N[C@H](CNc1nc(-c2ccncc2F)nc2c(-c3ccc[nH]3)csc12)Cc1ccccc1 [compound 419, (S)-N*1*-[2-(3-Fluoro-pyridin-4-yl)-7-(1H-pyrrol-2-yl)-thieno[3,2-d]pyrimidin-4-yl]-3-phenyl-propane-1,2-diamine]",100 to 1000
9,"F[C@H]1CN(Cc2ccccc2)C[C@@H]1Nc1nc(-c2ccncc2)nc2ccsc12 [compound 315, ((3S,4S)-1-Benzyl-4-fluoro-pyrrolidin-3-yl)-(2-pyridin-4-yl-thieno[3,2-d]pyrimidin-4-yl)-amine]",10000 to 40000
10,"Cc1sc2c(NC[C@@H](N)Cc3ccccc3)nc(-c3ccncc3)nc2c1C#CC(C)(C)O [compound 504, 4-[4-((S)-2-Amino-3-phenyl-propylamino)-6-methyl-2-pyridin-4-yl-thieno[3,2-d]pyrimidin-7-yl]-2-methyl-but-3-yn-2-ol]",< 100
11,"Cc1c(-c2ccnn2C)sc2c(N[C@@H]3CCNC3)nc(-c3ccncc3)nc12 [compound 469, [7-Methyl-6-(2-methyl-2H-pyrazol-3-yl)-2-pyridin-4-yl-thieno[3,2-d]pyrimidin-4-l]-(R)-pyrrolidin-3-yl-amine]",10000 to 40000
12,"Clc1cnccc1-c1nc(N[C@@H]2CCNC2)c2sccc2n1 [compound 322, [2-(3-Chloro-pyridin-4-yl)-thieno[3,2-d]pyrimidin-4-yl]-(R)-pyrrolidin-3-yl-amine]",1000 to 10000

# Same assay, conditions: full length PKCi at 15 μM ATP; read-out: IC50 in IMAP assay against full length PKCi (Activity)
row,IC50 [nM],SMILES
1,10000 to 40000,"NCCNc1nc(-c2ccncc2)nc2sc3c(c12)CCN(C(=O)c1ccccc1)C3 [compound 27, [4-(2-Amino-ethylamino)-2-pyridin-4-yl-5,8-dihydro-6H-pyrido[4′,3′:4,5]thieno[2,3-d]pyrimidin-7-yl]-phenyl-methanone]"
2,10000 to 40000,"COc1cnccc1-c1nc(NC[C@@H](N)Cc2ccccc2)c2c3c(sc2n1)CCCC3 [compound 102, (S)—N*1*-[2-(3-methoxy-pyridin-4-yl)-5,6,7,8-tetrahydro-benzo[4,5]thieno[2,3-d]pyrimidin-4-yl]-3-phenyl-propane-1,2-diamine]"
3,< 100,"N[C@H](CNc1nc(-c2ccncc2)nc2sc3c(c12)CCCC3)Cc1ccccc1O [compound 65, 2-[(S)-2-amino-3-(2-pyridin-4-yl-5,6,7,8-tetrahydro-benzo[4,5]thieno[2,3-d]pyrimidin-4-ylamino)-propyl]-phenol]"
4,1000 to 10000,"CC(C)(C)OC(=O)N1CCc2c(sc3nc(-c4ccncc4)nc(NC[C@@H](N)Cc4ccccc4)c23)C1 [compound 90, 4-((S)-2-Amino-3-phenyl-propylamino)-2-pyridin-4-yl-5,8-dihydro-6H-pyrido[4′,3′:4,5]thieno[2,3-d]pyrimidine-7-carboxylic acid tert-butyl ester]"
5,1000 to 10000,"COc1cccc(C[C@H](N)CNc2nc(-c3ccncc3)nc3sc4c(c23)CCCC4)c1 [compound 54, (S)-3-(3-Methoxy-phenyl)-N*1*-(2-pyridin-4-yl-5,6,7,8-tetrahydro-benzo[4,5]thieno[2,3-d]pyrimidin-4-yl)-propane-1,2-diamine]"
6,10000 to 40000,"N[C@@H](CNc1nc(-c2ccncc2)nc2sc3c(c12)CCOC3)Cc1ccccc1 [compound 83, (R)-3-Phenyl-N*1*-(2-pyridin-4-yl-5,8-dihydro-6H-pyrano[4′,3′:4,5]thieno[2,3-d]pyrimidin-4-yl)-propane-1,2-diamine]"
7,1000 to 10000,"N[C@H](CNc1nc(-c2ccncc2)nc2sc3c(c12)CCN(C(=O)c1ccccc1)C3)Cc1ccccc1 [compound 72, [4-((S)-2-Amino-3-phenyl-propylamino)-2-pyridin-4-yl-5,8-dihydro-6H-pyrido[4′,3′:4,5]thieno[2,3-d]pyrimidin-7-yl]-phenyl-methanone]"
8,1000 to 10000,"c1cc(-c2nc(NC[C@H]3CCCCN3)c3c4c(sc3n2)CCCC4)ccn1 [compound 62, (R)-1-Piperidin-2-ylmethyl-(2-pyridin-4-yl-5,6,7,8-tetrahydro-benzo[4,5]thieno[2,3-d]pyrimidin-4-yl)-amine]"
9,1000 to 10000,"N[C@@H](CNc1nc(-c2ccncc2)nc2sc3c(c12)CCCC3)Cc1csc2ccccc12 [compound 61, (R)-3-Benzo[b]thiophen-3-yl-N*1*-(2-pyridin-4-yl-5,6,7,8-tetrahydro-benzo[4,5]thieno[2,3-d]pyrimidin-4-yl)-propane-1,2-diamine]"

# From patent US10183950B2, “Thienopyrimidine inhibitors of atypical protein kinase C” (Cancer Research Technology Limited, priority 2011, dated 2019)
